US20200129561A1, “DELIVERY OF AUTOLOGOUS CELLS COMPRISING MATRIX METALLOPROTEINASE FOR TREATMENT OF SCLERODERMA” (Intrexon Corporation, priority 2017, published 2020)

Assay: Nonclinical studies of veledimex control of target protein expression: tissue level of veledimex
Assay type: in vivo
Conditions: oral administration; other target proteins
Description: MMP-1 expression levels were undetected after 10 days post-injection.

CCC[C@@H](N(NC(=O)c1cccc(OC)c1CC)C(=O)c1cc(C)cc(C)c1)C(C)(C)C [veledimex, 3,5-dimethyl-benzoic acid (R)—N-(1-tert-butyl-butyl)-N′-(2-ethyl-3-methoxy-benzoyl)-hydrazide]
levels of veledimex in the tissue at which maximal expression of target protein can be achieved: approximately 250 ng/mL
